These results are taken from patent US20100047332A1, “Treatments for burns using thyroid hormone compound in a human” (priority 2005, published 2010).

Data set [1] has as its system burned and blistered area of the right thigh. Kind of data set: Topical T-3 in Silvadene ointment on a burn.
In another data set the test system is burns. Particulars: small quantities in drinking water, excision and grafting, after 5 weeks; cited from earlier work.
For another data set, the system named is excisional wounds. Particulars: cited from earlier work.
Another data set concerns heart wounds. Particulars: 500 ngs continuously, slow release pellet; cited from earlier work.
A further data set has as its system dermis and epidermis. Particulars: topical application, not intraperitoneal; cited from earlier work.
In data set [2] the test system is wounds such as lacerations. In words: Lacerations treated with continuous topical T-3 or TriAc. The class given is in vivo, human. The following applies: continuous topical application, in approximately three days.
The next data set deals with TSH. Particulars: topically applied, humans; cited from earlier work.

For the compound `N[C@@H](Cc1cc(I)c(Oc2ccc(O)c(I)c2)c(I)c1)C(=O)O` [T-3, 3,5,3′-triiodothyronine], in data set [1] (T-3 1 mg in 30 ml Silvadene ointment, daily for two weeks), the “cellular debris and signs of inflammation” value is “more cellular debris and signs of inflammation”. Besides, the “appearance of the treated area” value in data set [1] (after 6 weeks) was “less reddened areas and had less discolored skin”. In the data set on burns, the “healing rate of burns” value was “no change in the healing rate”. Moreover, the “healing of excisional non thermal wounds” value in the data set on excisional wounds (eurythroid mouse, daily) is given as “accelerates the healing”. In addition, in the data set on excisional wounds (intraperitoneal, hypothyroid mice), the wound healing entry is given as “improved wound healing”. Further, the “healing of heart wounds” value with heart wounds is reported as “decreased healing of heart wounds”. Further, the “growth of the dermis and epidermis” value in the data set on dermis and epidermis was “affect the growth of the dermis and epidermis”. Further, the signs of inflammation entry in data set [2] is given as “increased signs of inflammation”.

On to `N[C@@H](Cc1cc(I)c(Oc2cc(I)c(O)c(I)c2)c(I)c1)C(=O)O` [T-4, thyroxine], for which the “effect on TSH levels or other thyroid hormone function tests” value in the data set with TSH is “no effect on TSH levels”.
